Measurements as given in patent US20030161893A1, “PTPase inhibitors and methods of using the same” (priority 2001, published 2003).

What was measured:
[1] = Tolerability in nude mice (viability, body weight, organs); assay type: in vivo
Experimental: Nude mice bearing WM9 or DU145 xenografts were treated with IFN-alpha (500,000 U, s.c., daily), sodium stibogluconate (12 mg Sb, s.c., daily) or both. […] The dosage of sodium stibogluconate corresponds to approximately 440 mg Sb/kg body weight (average mouse body weight 27 g), substantially higher than the standard therapeutic dose of 20 mg Sb/kg and the high dose (143 mg Sb/kg) that was clinically used by accident without serious toxicity. This dose of sodium stibogluconate was based on a previous observation in a pilot study that mice could tolerate daily dose of 20 mg Sb (approximately 700-800 mg Sb/kg). An observation that the effect of sodium stibogluconate in inhibiting the growth of the cancer cell lines in vitro was dose-dependent with complete or near complete killing of the cancer cells at […] (or 100 ug Sb/kg) was also considered. In light of the relatively rapid rate of clearance of the drug in vivo, 440 mg Sb/kg dosage was used to ensure the detection of the effectiveness of the drug for this initial study.
As discussed above, the dosage of sodium stibogluconate used for the treatment of nude mice was 12 mg Sb/mouse, s.c., daily (or approximately 440 mg/kg body weight). This dosage is much higher than the standard dose for leishmaniasis (20 mg Sb/kg, daily). As an initial step to assess the toxicity of such a high dosage of sodium stibogluconate in nude mice, the effect of sodium stibogluconate on the viability and body weights of WM9 xenografts nude mice during the 25 day period of the study was determined.
Athymic nude mice (nu/nu, NCR), 4 weeks old (Taconic), were inoculated (s.c.) in the flanks with DU145 cells (3×10^6 cells/site) on day 0. Starting on day 2, the mice were subjected to no treatment (Control) or treatment with sodium stibogluconate (12 mg, s.c., daily, […], at the hip area). The dosage of sodium stibogluconate used in the study was similar to the effective daily dose of sodium stibogluconate for the treatment of murine leishmaniasis (Murray, et al. 1988). Tumor volume was measured and calculated using the formula for a prolate spheroid (V=4/3 7 a^2b) (Lindner, et al. 1997). Hematoxylin+Eosin (H.E.) stained tissue sections of internal organs and tumor inoculation sites tissues of the mice were prepared and subjected microscopic evaluation.

U251 cells = assay: Cell growth assay (MTT), U251 glioma cells; assay type: cell-based, human; details: 100 μg/ml, day 6
Experimental: NIH3T3 (Yi, et al., Blood 85, 87 (1995)), WM9 (Forsberg, et al., Proc. Nat. Acad Sci. USA 90, 393 (1993)), DU145 (Mickey, et al., Cancer Res. 37, 4049 (1977)), LoVo (Drewinko, et al., Cancer Res. 36, 467 (1976)), HEY (Buick, et al., Cancer Res. 45, 3668 (1985)), U251 (Yoshida, et al., Cancer 50, 410 (1982)), A549 (Giard, et al., J. Natl. Cancer Inst. 51, 1417 (1973)) and SK-N-SH (Helson, et al., Cancer Res. 35, 2594 (1975)) cell lines have been described and were cultured in RPMI 1640 supplemented with 10% fetal calf serum (FCS). For measurement of sodium stibogluconate effects on cell growth in vitro, cells were cultured in the absence (−) or presence (+) of various amounts of sodium stibogluconate for 6 days with viable cells quantified by MTT assays (Mosmann, J. Imunol. Methods 65, 55 (1983)). Percentages of growth inhibition by sodium stibogluconate were calculated (+/−×%).

PRL-3 = biological target: T1, PRL-3 (Homo sapiens, UniProt O75365); assay: In vitro PTPase assay, recombinant PRL-3; assay type: biochemical
T1 construct: cDNAs of human PRL-1, PRL-2 and PRL-3 coding region were derived by RT-PCR from H9 cells; made in house; host or cells: DH5a bacteria (E. coli)
T1 sequence (O75365 whole entry): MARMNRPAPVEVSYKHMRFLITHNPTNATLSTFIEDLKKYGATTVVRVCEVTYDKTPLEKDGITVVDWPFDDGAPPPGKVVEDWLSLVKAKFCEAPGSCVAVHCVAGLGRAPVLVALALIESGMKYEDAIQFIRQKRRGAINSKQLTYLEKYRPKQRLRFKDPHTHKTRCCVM
Description: Sodium stibogluconate, suramin, sodium orth ovanadate and GST fusion protein of SHP-1 have been described previously (Pathak et al., J. Imumol. 167, 3391 (2001)). Meglumine antimonate was obtained from Aventis. cDNAs of human PRL-1, PRL-2 and PRL-3 coding region were derived by RT-PCR from H9 cells (Safai, et al., Lancet 1, 1438 (1984)) and inserted in frame into the pGEX vector. cDNA of PRL-1R86 was generated by recombinant DNA technique using PRL-1 cDNA as template following established procedures (Jiao, et al., Mol. Cell. Biol. 16, 6985 (1996)). GST fusion proteins of the PRL phosphatases were prepared from DH5a bacteria transformed with the pGEX fusion protein constructs as described previously (Yi, et al., Mol. Cell. Biol. 12, 836 (1992)). cDNAs encoding the PRLs tagged at the N-termini with the Flag epitope (Castrucci, et al., J. Virol. 66, 4647 (1992)) were generated via recombinant DNA technique, sequenced to confirm their identities and cloned into the pBabepuro vector (Yang, et al., Blood 91, 3746 (1998)). Anti-Flag monoclonal antibody (M2, Sigma) was purchased from a commercial source. A synthetic phosphotyrosine peptide (Arg-Arg-Leu-Ile-Glu-Asp-Ala-Gle-Tyr-Ala-Ala-Arg-Gly (SEQ ID NO: 3), wherein the tyrosine is phosphorylated; UBI) and DiFMUP (6, 8-difluoro-4-methylumbelliferyl phosphate, Molecular Probes) were purchased as substrates for PTPase assays.
In vitro PTPase assays were used to determine the effects of compounds on recombinant PTPases, following established procedures using a synthetic phosphotyrosine peptide or DiFMUP as the substrate (Pathak et al., J. Imumol. 167, 3391 (2001)). Briefly, individual PTPases (0.1 μg/reaction) in 50 μL of PTPase buffer (50 mM Tris, pH 7.4) were incubated at 22° C. for 10 minutes or as indicated in the absence or presence of inhibitory compounds. Substrates (0.2 mM phosphotyrosine peptide) were then added and allowed to react at 22° C. for 18 hrs. PTPase activity of individual reactions was measured by adding 100 μL of malachite green solution (UBI) and then quantifying the amounts of free phosphate cleaved by the PTPase from the peptide substrate by spectrometry (OD660 nm). PTPase assays using DiFMUP as a substrate were conducted following a previously described procedure (Matter, et al., Biochem. Biophys. Res. Comm. 283, 1061 (2001)). Relative PTPase activities were calculated based on the formula: (PTPase activity in the presence of an inhibitory compound/PTPase activity in the absence of the compound)×100%. To assess the reversibility of PTPase inhibition, GST fusion proteins of the PTPases bound on glutathione beads (Pharmacia) were pre-incubated with cold Tris buffer (50 mM Tris, pH 7.0) or Tris buffer containing the inhibitor at 4° C. for 30 minutes. The beads were then washed three times in cold Tris buffer or not washed prior to subjecting to in vitro PTPase assays.

Structure (SMILES): O.O.O.O.O.O.O.O.O.O=C([O-])[C@@H]1[O][Sb]2([O-])([O][Sb]34([OH])[O][C@H]([C@H](O)CO)[C@H]([O]3)[C@H](C(=O)[O-])[O]4)[O][C@H]([C@H](O)CO)[C@@H]1[O]2.[Na+].[Na+].[Na+] [sodium stibogluconate]
- tolerability at the dosage used ([1]; 12 mg Sb daily (440 mg Sb/kg daily)): well tolerated with no serious side effects
- survival of DU145 tumor mice ([1]; 440 mg/kg daily): survived until the end of the study
- histology of major organs ([1]; 440 mg/kg daily, DU145 tumor mice): unremarkable
- tolerated daily dose in mice (pilot study) ([1]; approximately 700-800 mg Sb/kg): 20 mg Sb
- survival of WM9 xenograft nude mice ([1]; day 25, 4 mice/group): survived until the end of the study
- cell killing, U251 (U251 cells): near-complete cell killing
- inactivation of PRL-3 with prolonged pre-incubation (PRL-3; 10 μg/ml, pre-incubation 30 or 60 minutes): nearly complete inactivation
- inhibition of PRL-3 with DiFMUP substrate (PRL-3; DiFMUP, comparable conditions): also detected
- reversibility of PRL-3 inhibition by washing (PRL-3; PRL-3 bound to glutathione beads): not relieved by a washing process
